In data set [1] the test system is Neuroblastoma SH-SY5Y cells (SH/APPwt) with human wild-type β-APP excessively expressed. The data set can be described thus: Measurement of β-amyloid (Aβ) production inhibitory effect in cell. In kind it is cell-based. As to the method:
Neuroblastoma SH-SY5Y cells (SH/APPwt) with human wild-type β-APP excessively expressed therein were prepared at 8×10^5 cells/mL, and 150 μl portions thereof were inoculated into each well of a 96-well culture plate (Falcon). The cells were cultured for 2 hours at 37° C. in a 5% gaseous carbon dioxide incubator. Then, a solution which had been preliminarily prepared by adding and suspending the test compound (DMSO (dimethyl sulfoxide) solution) so as to be 2 μl/50 μl medium was added to the cell sap. Namely, the final DMSO concentration was 1%, and the amount of the cell culture was 200 μl. After the incubation was performed for 24 hours from the addition of the test compound, 100 μl of the culture supernatant was collected from each fraction. The amount of the Aβ in each fraction was measured.
The Aβ amount was measured as follows. 10 μl of a homogeneous time resolved fluorescence (HTRF) measurement reagent (Amyloid β 1-40 peptide; IBA Molecular Holding, S. A.) and 10 μl of the culture supernatant were put into a 384-well half area microplate (black microplate, Costar) and mixed with each other, and then left standing overnight at 4° C. while the light was shielded. Then, the fluorescence intensity (excitation wavelength: 337 nm, measurement wavelength: 620 nm and 665 nm) was measured with a Wallac 1420 multilabel counter (Perkin Elmer life sciences).

Data set [2] can be described thus: Metabolism stability test. In kind it is in vitro ADME. As to conditions: human liver microsomes 0.5 mg protein/mL, 1 mmol/L NADPH, 37° C., 30 minutes; 0 minute = 100%. How it is done: Using a commercially available pooled human hepatic microsomes, a test compound was reacted for a constant time, a remaining rate was calculated by comparing a reacted sample and an unreacted sample, thereby, a degree of metabolism in liver was assessed.
A reaction was performed (oxidative reaction) at 37° C. for 0 minute or 30 minutes in the presence of 1 mmol/L NADPH in 0.2 mL of a buffer (50 mmol/L Tris-HCl pH 7.4, 150 mmol/L potassium chloride, 10 mmol/L magnesium chloride) containing 0.5 mg protein/mL of human liver microsomes. After the reaction, 50 μL of the reaction solution was added to 100 μL of a methanol/acetonitrile=1/1 (v/v), mixed and centrifuged at 3000 rpm for 15 minutes. The test compound in the supernatant was quantified by LC/MS/MS, and a remaining amount of the test compound after the reaction was calculated, letting a compound amount at 0 minute reaction time to be 100%.
(In general: Liver microsomes are vesicles of endoplasmic reticulum, rich in cytochrome P450 enzymes.)

The next data set addresses T1, CYP1A2 (Homo sapiens, UniProt P05177).
T1 construct: enzyme, pooled human hepatic microsome 0.2 mg protein/mL; from tissue; host or cells: pooled human hepatic microsomes
T1 sequence (P05177 1-516): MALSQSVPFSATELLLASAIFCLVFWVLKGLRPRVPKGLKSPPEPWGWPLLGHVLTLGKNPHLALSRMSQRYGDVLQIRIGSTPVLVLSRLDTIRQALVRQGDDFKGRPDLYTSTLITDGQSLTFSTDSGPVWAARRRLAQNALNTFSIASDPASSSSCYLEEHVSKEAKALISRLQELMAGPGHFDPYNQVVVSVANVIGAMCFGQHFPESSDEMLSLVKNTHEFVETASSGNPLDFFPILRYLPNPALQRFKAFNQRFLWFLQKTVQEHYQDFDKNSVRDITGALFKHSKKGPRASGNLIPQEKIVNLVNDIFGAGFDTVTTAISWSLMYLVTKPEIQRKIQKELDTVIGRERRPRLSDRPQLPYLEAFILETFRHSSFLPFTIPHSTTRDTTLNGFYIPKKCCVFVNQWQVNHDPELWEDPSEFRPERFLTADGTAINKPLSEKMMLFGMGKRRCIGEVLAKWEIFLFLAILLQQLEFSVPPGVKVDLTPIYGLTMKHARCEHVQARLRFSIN
The data set can be described thus: CYP inhibition test (CYP1A2). In kind it is in vitro ADME. The note with it: pooled human hepatic microsome; 7-ethoxyresorufin O-deethylation. How it is done: (§1) Using commercially available pooled human hepatic microsome, and employing, as markers, 7-ethoxyresorufin O-deethylation (CYP1A2), tolbutamide methyl-hydroxylation (CYP2C9), mephenyloin 4′-hydroxylation (CYP2C19), dextromethorphan O-demethylation (CYP2D6), and terfenedine hydroxylation (CYP3A4) as typical substrate metabolism reactions of human main five CYP enzyme forms (CYP1A2, 2C9, 2C19, 2D6, 3A4), an inhibitory degree of each metabolite production amount by a test compound was assessed. […] After the centrifugation at 3000 rpm for 15 minutes, resorufin (CYP1A2 metabolite) in the supernatant was quantified by a fluorescent multilabel counter and tolbutamide hydroxide (CYP2C9 metabolite), mephenyloin 4′ hydroxide (CYP2C19 metabolite), dextrorphan (CYP2D6 metabolite), and terfenadine alcohol (CYP3A4 metabolite) were quantified by LC/MS/MS. Addition of only DMSO being a solvent dissolving a drug to a reaction system was adopted as a control (100%), remaining activity (%) was calculated at each concentration of a test drug added as the solution and IC50 was calculated by reverse presumption by a logistic model using a concentration and an inhibition rate.

For a further data set, the target named is T2, CYP3A4 (Homo sapiens, UniProt P08684).
T2 construct: enzyme, pooled human hepatic microsome 0.2 mg protein/mL; from tissue; host or cells: pooled human hepatic microsomes
T2 sequence (P08684 whole entry): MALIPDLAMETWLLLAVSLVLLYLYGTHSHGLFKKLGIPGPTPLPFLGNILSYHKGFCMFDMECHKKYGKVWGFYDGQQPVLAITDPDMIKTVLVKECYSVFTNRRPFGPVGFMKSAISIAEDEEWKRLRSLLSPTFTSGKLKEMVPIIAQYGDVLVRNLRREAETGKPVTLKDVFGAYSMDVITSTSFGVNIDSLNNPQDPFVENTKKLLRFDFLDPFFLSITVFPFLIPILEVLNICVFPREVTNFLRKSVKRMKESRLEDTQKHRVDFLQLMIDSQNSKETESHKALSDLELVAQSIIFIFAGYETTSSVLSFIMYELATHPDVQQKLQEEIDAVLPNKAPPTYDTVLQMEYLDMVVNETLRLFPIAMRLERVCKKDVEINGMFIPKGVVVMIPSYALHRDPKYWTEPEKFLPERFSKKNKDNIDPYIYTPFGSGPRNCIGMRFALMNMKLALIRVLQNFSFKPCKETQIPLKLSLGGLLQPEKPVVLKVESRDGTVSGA
As to the kind of experiment: CYP inhibition test (CYP3A4). The format is in vitro ADME. As to conditions: pooled human hepatic microsome; terfenedine hydroxylation. As to the method: as §1

For the next data set, the target named is T3, CYP2C19 (Homo sapiens, UniProt P33261).
T3 construct: enzyme, pooled human hepatic microsome 0.2 mg protein/mL; from tissue; host or cells: pooled human hepatic microsomes
T3 sequence (P33261 whole entry): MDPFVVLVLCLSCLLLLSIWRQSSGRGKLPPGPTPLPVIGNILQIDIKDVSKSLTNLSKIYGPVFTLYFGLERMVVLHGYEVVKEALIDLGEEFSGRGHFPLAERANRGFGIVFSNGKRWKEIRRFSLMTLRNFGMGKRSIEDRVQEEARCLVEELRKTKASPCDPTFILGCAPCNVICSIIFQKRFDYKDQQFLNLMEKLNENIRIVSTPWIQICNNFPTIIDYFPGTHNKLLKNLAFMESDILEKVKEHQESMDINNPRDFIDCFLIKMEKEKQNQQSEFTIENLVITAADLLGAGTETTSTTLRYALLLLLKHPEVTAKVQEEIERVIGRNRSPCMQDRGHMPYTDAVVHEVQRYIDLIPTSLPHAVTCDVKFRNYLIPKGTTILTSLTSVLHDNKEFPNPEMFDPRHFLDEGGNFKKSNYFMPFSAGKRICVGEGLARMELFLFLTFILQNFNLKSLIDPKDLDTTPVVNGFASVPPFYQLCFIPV
As to the kind of experiment: CYP inhibition test (CYP2C19). The format is in vitro ADME. As to conditions: pooled human hepatic microsome; mephenyloin 4′-hydroxylation. How it is done: as §1

The target of a further data set is T4, CYP2C9 (Homo sapiens, UniProt P11712).
T4 construct: enzyme, pooled human hepatic microsome 0.2 mg protein/mL; from tissue; host or cells: pooled human hepatic microsomes
T4 sequence (P11712 whole entry): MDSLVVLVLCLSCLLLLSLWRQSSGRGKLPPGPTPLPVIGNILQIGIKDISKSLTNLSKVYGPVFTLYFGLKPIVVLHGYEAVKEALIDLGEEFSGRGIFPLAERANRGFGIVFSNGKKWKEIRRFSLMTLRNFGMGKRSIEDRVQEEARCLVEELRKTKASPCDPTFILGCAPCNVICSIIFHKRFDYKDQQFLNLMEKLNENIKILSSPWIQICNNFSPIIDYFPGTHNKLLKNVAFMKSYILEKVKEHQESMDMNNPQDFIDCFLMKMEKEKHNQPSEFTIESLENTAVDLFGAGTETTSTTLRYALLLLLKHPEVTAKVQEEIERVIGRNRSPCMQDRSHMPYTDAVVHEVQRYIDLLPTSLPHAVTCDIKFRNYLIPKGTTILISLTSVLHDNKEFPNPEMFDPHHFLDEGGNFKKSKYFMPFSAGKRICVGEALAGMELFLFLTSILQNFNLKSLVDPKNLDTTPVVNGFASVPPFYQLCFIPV
The data set can be described thus: CYP inhibition test (CYP2C9). The format is in vitro ADME. The note with it: pooled human hepatic microsome; tolbutamide methyl-hydroxylation. How it is done:
as §1

Another data set addresses T5, CYP2D6 (Homo sapiens, UniProt P10635).
T5 construct: enzyme, pooled human hepatic microsome 0.2 mg protein/mL; from tissue; host or cells: pooled human hepatic microsomes
The data set can be described thus: CYP inhibition test (CYP2D6). In kind it is in vitro ADME. The note with it: pooled human hepatic microsome; dextromethorphan O-demethylation. How it is done:
as §1

For data set [3], the target named is T6, CYP3A4 enzyme expressed in Escherichia coli (Homo sapiens, UniProt P08684).
T6 construct: host or cells: Escherichia coli
T6 sequence (P08684 whole entry): as the sequence (P08684 whole entry) above
As to the kind of experiment: CYP3A4 fluorescent MBI test. In kind it is in vitro ADME. The note with it: pre-reaction time 0 or 30 minutes; substrate 7-BFC. As to the method: The CYP3A4 fluorescent MBI test is a test of investigating enhancement of CYP3A4 inhibition of a compound by a metabolism reaction, and the test was performed using, as CYP3A4 enzyme expressed in Escherichia coli and employing, as an index, a reaction in which 7-benzyloxytrifluoromethylchmarin (7-BFC) is debenzylated by the CYP3A4 enzyme to produce a metabolite, 7-hydroxytrifluoromethylchmarin (HFC) emitting fluorescent light.
The reaction conditions were as follows: substrate, 5.6 μmol/L 7-BFC; pre-reaction time, 0 or 30 minutes; reaction time, 15 minutes; reaction temperature, 25° C. […]
An enzyme in a K-Pi buffer (pH 7.4) and a test drug solution as a pre-reaction solution were added to a 96-well plate at the composition of the pre-reaction, a part of it was transferred to another 96-well plate so that it was 1/10 diluted by a substrate in a K-Pi buffer, NADPH as a co-factor was added to initiate a reaction as an index (without preincubation) and, after a predetermined time of a reaction, acetonitrile/0.5 mol/L Tris(trishydroxyaminomethane)=4/1 was added to stop the reaction. […] For the plate on which each index reaction had been performed, a fluorescent value of 7-HFC which is a metabolite was measured with a fluorescent plate reader. […]

The target of another data set is T7, hERG (IKr) (Homo sapiens, UniProt Q12809).
T7 construct: expressed in transfected cells; host or cells: HEK293
T7 sequence (Q12809 whole entry): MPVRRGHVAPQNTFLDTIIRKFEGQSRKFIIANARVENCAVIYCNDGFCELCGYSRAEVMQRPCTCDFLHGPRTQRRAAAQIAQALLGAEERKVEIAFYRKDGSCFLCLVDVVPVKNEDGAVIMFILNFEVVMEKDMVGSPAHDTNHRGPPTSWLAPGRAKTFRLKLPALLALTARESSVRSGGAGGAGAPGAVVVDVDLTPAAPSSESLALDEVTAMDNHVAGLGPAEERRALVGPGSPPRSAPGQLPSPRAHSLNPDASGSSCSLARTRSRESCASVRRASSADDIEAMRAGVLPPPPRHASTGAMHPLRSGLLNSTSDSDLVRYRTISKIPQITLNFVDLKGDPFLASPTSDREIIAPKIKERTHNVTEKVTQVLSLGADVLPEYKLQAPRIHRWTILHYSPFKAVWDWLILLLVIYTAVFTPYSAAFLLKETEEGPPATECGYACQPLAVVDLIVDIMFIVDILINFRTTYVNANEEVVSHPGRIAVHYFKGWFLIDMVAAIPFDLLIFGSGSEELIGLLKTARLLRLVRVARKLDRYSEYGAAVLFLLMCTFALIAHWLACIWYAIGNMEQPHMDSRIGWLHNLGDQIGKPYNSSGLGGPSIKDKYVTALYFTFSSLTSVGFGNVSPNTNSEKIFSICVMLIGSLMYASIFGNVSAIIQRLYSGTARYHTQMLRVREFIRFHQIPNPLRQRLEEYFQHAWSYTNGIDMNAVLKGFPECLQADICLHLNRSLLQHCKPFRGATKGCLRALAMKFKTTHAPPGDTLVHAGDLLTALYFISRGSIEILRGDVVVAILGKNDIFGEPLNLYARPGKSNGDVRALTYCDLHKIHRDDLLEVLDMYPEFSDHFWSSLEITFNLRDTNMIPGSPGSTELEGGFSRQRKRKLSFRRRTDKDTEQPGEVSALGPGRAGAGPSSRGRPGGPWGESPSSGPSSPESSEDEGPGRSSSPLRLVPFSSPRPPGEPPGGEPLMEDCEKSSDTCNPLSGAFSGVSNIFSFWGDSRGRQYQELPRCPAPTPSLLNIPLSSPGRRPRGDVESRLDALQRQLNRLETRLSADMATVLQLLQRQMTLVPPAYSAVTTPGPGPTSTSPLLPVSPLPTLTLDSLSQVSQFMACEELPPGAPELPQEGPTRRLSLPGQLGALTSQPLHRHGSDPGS
The data set can be described thus: hERG test. The note with it: pH 7.4, HEK293 cells expressing hERG channel, whole cell patch clamp, concentration not given, read-out: % inhibition relative to the tail peak current (IKr). In kind it is cell-based. The text has this: For the purpose of assessing risk of an electrocardiogram QT interval prolongation, effects on delayed rectifier K+ current (IKr), which plays an important role in the ventricular repolarization process, was studied using HEK293 cells expressing human ether-a-go-go related gene (hERG) channel.
After a cell was retained at a membrane potential of −80 mV by whole cell patch clamp method using an automated patch clamp system (PatchXpress 7000A, Axon Instruments Inc.), IKr induced by depolarization pulse stimulation at +40 mV for 2 seconds and, further, repolarization pulse stimulation at −50 mV for 2 seconds was recorded. […] From the recording IKr, an absolute value of the tail peak current was measured based on the current value at the resting membrane potential using an analysis software (DataXpress ver.1, Molecular Devices Corporation). Further, the % inhibition relative to the tail peak current before application of the test substance was calculated, and compared with the vehicle-applied group (0.1% dimethyl sulfoxide solution) to assess influence of the test substance on IKr.
On the technique in general: hERG is a cardiac potassium channel; its block is linked to QT prolongation.

A further data set in a line: Solubility test. The format is physicochemical. The note with it: JP-I and JP-II media (2% DMSO stock added), aqueous buffer, kinetic from dmso stock, medium (JP-I, JP-II), turbidity after 4 hours. How it is done: A 2-fold dilution series (12 points) of a 10 mM solution of a test compound in DMSO was added to a medium (JP-I, JP-II) (2%), and solubility was assessed by 3 stages (High; >40 μM, Medium; 3-40 μM, Low; <3 μM) from a turbidity after 4 hours (crystallization information).

[4] abbreviates: Aβ production in SH/APPwt cells, by the similar test, read-out: IC50 value.
Where [5] appears, read: amount needed to inhibit Aβ production by 50%, SH/APPwt cells, 24 hours, Table 3, read-out: IC50.

Data on 15 compounds can be found in US20120238557A1, “AMINOTHIAZINE OR AMINOOXAZINE DERIVATIVE HAVING AMINO LINKER” (SHIONOGI & CO., LTD., priority 2009, published 2012).

pIC50: −log10 of the molar value. Where two headings read alike, the source gives them in different places.

T5 sequence (P10635 whole entry): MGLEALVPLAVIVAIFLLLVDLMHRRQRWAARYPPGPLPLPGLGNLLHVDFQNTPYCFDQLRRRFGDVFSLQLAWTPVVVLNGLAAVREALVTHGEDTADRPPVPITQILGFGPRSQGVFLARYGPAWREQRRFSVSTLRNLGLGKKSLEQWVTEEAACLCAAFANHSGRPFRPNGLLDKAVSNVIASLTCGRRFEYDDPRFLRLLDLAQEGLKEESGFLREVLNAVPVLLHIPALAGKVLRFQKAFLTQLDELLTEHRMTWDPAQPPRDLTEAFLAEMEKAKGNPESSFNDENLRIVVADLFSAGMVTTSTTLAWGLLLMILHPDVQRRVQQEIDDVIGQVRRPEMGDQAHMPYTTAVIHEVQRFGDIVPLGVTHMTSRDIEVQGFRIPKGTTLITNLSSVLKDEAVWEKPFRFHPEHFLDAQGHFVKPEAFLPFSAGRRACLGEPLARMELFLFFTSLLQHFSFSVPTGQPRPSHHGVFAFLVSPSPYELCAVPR

As usually defined, the pIC50 is the negative decadic logarithm of the IC50, by convention in mol/L. As for `Cc1cccc(Nc2ccc(F)c([C@]3(C)CCSC(N)=N3)c2)n1` [Compound I-12], the pIC50 in data set [1] (setting [4]) was at least 5.52. Take `COc1cccnc1Nc1ccc(F)c([C@]2(C)CCOC(N)=N2)c1` [Compound I-6]: the pIC50 in [1] (setting [5]) is 7.80.

On to `COCc1ccc(Nc2ccc(F)c([C@]3(C)CCSC(N)=N3)c2)nc1` [Compound I-23], for which the pIC50 in [1] (setting [4]) was at least 5.52. In the case of `C[C@@]1(c2cccc(Nc3ncccc3C#N)c2)CCSC(N)=N1` [Compound I-33], in [2], the “remaining amount of the test compound after the reaction” value is on record as 95%. For the compound `CC(C)OCc1ccc(Nc2ccc(F)c([C@]3(C)CCSC(N)=N3)c2)nc1` [Compound I-26], the pIC50 in data set [1] (setting [4]) was at least 5.52. As to `COc1ccc(Nc2ccc(F)c([C@]3(C)CCSC(N)=N3)c2)nc1` [Compound I-20], the pIC50 in data set [1] (setting [4]) was at least 5.52.

As to `C[C@@]1(c2cc(Nc3ncccc3CO)ccc2F)CCSC(N)=N1` [Compound I-16], the pIC50 in [1] (setting [4]) was at least 5.52. For `C[C@@]1(c2cc(Nc3ncccc3N)ccc2F)CCSC(N)=N1` [Compound I-10], the pIC50 against CYP1A2 is below 4.68; against CYP3A4, below 4.68; against CYP2C19, below 4.68; at CYP2C9 it was below 4.68; in data set [1] (setting [4]) it was at least 5.52; at CYP2D6, below 4.68.

For `CC(C)Oc1cccnc1Nc1ccc(F)c([C@]2(C)CCSC(N)=N2)c1` [Compound I-24], the pIC50 in [1] (setting [4]) was at least 5.52. On to `COc1cccnc1Nc1ccc(F)c([C@]2(C)CCSC(N)=N2)c1` [Compound I-18], for which the pIC50 in data set [1] (setting [5]) is 7.96.

Consider `COc1ccnc(Nc2ccc(F)c([C@]3(C)CCSC(N)=N3)c2)c1` [Compound I-19], for which, in [1] (setting [4]), the pIC50 was at least 5.52.

As for `C[C@@]1(c2cc(Nc3ncccc3C#N)ccc2F)CCOC(N)=N1` [Compound I-3], in data set [3], the “CYP3A4 MBI: difference between IC50 values” was “(−) (when the difference is 3 μM or less, this was defined as (−))”. In general, inhibition refers to the share of the control response that was lost under treatment. For the compound `C[C@@]1(c2cc(Nc3ccncn3)ccc2F)CCSC(N)=N1` [Compound I-1], the inhibition at 10 min at hERG (IKr) was 3.2%. Further, the pIC50 in data set [1] (setting [4]) was at least 5.52. What is called solubility is the dissolved amount per volume that the medium holds. Lower therefore signals little dissolved substance. Take `C[C@@]1(c2cc(Nc3ncccc3C#N)ccc2F)C=CSC(N)=N1` [Compound I-9]: in “Solubility test”, the solubility at 4 h is above 40 µM. Take `CCCCOC(=O)c1cccnc1Nc1ccc(F)c([C@]2(C)CCOC(N)=N2)c1` [Compound I-25]: in data set [1] (setting [4]), the pIC50 was at least 5.52.
